Data as given in ChEMBL document CHEMBL4616693, “Identification of Inhibitors of Thrombospondin 1 Activation of TGF-β” (ACS Med Chem Lett, 2020).
Peptide text beside a SMILES is read from it.

What was measured:
Thrombospondin-1 [1] = target: T1, Thrombospondin-1 (Homo sapiens, UniProt P07996); assay: Inhibition of TSP1 in human myeloma cells assessed reduction in TGFbeta activity incubated for 1 hr by ELISA; format: cell-based
Target sequence in this assay (P07996 whole entry): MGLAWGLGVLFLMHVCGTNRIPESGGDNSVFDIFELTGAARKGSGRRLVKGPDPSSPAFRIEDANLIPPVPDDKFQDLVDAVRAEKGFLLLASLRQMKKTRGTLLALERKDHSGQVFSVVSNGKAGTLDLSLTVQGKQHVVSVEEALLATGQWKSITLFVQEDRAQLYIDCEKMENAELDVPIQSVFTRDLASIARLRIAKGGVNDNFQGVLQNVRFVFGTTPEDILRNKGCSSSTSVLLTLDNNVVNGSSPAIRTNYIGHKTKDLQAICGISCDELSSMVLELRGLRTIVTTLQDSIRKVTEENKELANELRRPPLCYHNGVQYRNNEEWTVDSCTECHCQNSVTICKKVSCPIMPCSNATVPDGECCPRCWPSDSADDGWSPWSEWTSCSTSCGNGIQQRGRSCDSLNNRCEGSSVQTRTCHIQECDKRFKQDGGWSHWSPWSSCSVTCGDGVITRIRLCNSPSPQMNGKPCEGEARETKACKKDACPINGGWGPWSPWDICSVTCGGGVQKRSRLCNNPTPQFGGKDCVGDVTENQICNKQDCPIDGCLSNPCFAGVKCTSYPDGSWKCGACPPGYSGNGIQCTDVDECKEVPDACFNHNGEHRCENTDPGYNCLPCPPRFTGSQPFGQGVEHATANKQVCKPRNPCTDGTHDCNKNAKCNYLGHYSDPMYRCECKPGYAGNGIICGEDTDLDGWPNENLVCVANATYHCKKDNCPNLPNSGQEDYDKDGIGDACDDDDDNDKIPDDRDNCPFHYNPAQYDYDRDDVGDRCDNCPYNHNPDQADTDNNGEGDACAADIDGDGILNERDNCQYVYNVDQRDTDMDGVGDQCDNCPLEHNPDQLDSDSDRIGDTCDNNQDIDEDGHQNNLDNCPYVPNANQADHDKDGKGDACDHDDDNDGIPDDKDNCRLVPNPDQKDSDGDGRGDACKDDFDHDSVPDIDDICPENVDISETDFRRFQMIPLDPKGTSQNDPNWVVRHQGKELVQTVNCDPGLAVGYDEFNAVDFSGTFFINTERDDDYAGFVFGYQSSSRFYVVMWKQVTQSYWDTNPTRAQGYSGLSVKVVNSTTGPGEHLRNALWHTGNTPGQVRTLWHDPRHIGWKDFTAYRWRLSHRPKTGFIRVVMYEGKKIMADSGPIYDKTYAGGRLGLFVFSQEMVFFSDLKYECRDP

[2] = Cmax in ip dosed CD1 mouse measured after 0.25 hrs by LC-MS/MS analysis; format: ADME, organism-based; set-up: route intraperitoneal; conditions: in vivo
Thrombospondin-1 [3] = target: T1, Thrombospondin-1; assay: Inhibition of recombinant human TSP1 P123 expressed in baculovirus system binding to recombinant human LAP at 10 nM preincubated for 10 mins followed by recombinant human LAP addition and measured after 2 hrs by ELISA relative to control
Target sequence in this assay (P07996 19-1170 limits assumed): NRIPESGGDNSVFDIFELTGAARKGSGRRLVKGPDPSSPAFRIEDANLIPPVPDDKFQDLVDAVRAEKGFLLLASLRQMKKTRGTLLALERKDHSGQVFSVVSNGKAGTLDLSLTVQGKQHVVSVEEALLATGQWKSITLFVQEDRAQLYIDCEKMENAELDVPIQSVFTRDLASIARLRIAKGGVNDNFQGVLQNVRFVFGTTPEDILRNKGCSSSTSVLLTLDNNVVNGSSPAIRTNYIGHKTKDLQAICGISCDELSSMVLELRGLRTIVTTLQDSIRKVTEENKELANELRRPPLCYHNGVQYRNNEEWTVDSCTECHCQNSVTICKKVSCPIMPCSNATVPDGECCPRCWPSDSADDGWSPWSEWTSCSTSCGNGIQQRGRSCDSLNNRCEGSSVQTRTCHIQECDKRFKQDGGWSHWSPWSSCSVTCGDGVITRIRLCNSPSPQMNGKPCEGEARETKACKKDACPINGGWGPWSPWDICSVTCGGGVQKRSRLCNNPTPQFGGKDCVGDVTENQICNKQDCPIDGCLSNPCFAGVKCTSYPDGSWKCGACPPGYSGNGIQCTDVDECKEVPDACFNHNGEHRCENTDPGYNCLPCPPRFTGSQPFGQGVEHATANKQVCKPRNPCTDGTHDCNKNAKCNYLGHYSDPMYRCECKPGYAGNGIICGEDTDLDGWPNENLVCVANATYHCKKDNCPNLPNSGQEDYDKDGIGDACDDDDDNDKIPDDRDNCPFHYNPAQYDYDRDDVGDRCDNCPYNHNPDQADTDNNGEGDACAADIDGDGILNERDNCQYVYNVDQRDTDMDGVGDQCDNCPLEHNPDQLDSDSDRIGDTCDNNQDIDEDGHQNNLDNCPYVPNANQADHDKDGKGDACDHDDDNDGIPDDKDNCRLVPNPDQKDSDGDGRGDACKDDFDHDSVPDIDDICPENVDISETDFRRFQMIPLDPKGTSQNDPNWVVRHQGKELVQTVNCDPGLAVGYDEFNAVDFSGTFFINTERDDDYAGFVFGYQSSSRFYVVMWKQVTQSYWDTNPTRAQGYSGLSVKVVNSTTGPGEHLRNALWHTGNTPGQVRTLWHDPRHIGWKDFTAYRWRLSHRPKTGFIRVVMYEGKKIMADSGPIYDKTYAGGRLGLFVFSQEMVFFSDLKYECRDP

[4] = Microsomal stability in rat liver microsomes assessed as half life measured after 45 mins in presence of NADPH by LC-MS/MS analysis; format: ADME, Microsome
[5] = Plasma concentration in CD1 mouse at 1 mg/kg, iv or 5 mg/kg, po measured after 2 hrs by LC-MS/MS analysis; format: ADME, organism-based
[6] = Oral bioavailability in CD1 mouse at 5 mg/kg by LC-MS/MS analysis; format: ADME, organism-based; conditions: in vivo
[7] = Plasma concentration in CD1 mouse at 1 mg/kg, iv or 5 mg/kg, po measured after 1 hr by LC-MS/MS analysis; format: ADME, organism-based
[8] = Microsomal stability in human liver microsomes assessed as half life measured after 45 mins in presence of NADPH by LC-MS/MS analysis; format: ADME, Microsome
[9] = Half life in ip dosed CD1 mouse by LC-MS/MS analysis; format: ADME, organism-based; conditions: in vivo
[10] = Half life in CD1 mouse at 1 mg/kg, iv by LC-MS/MS analysis; format: ADME, organism-based; conditions: in vivo

| Compound | IC50 (Thrombospondin-1 [1]) | also measured |
| --- | --- | --- |
| CC(=O)N[C@@H](CO)C(=O)N[C@@H](CCCCN(C)C)C(=O)N[C@@H](CC(C)C)C(N)=O (HELM PEPTIDE1{[ac].S.[CN(C)CCCC[C@H](N[*:1])C(=O)[*:2]].L.[am]}$$$$V2.0) | 1.51 nM |  |
| CNCCCC[C@H](NC(=O)[C@H](CO)NC(C)=O)C(=O)N[C@@H](CC(C)C)C(N)=O (HELM PEPTIDE1{[ac].S.[CNCCCC[C@H](N[*:1])C(=O)[*:2]].L.[am]}$$$$V2.0) | 4.37 nM |  |
| CC(=O)N[C@@H](CO)C(=O)N[C@@H](CCCCN)C(=O)N(C)[C@@H](CC(C)C)C(N)=O (HELM PEPTIDE1{[ac].S.K.[meL].[am]}$$$$V2.0) | 2.24 nM |  |
| CC(=O)N[C@@H](CCCN)C(=O)NC(C)(C)C(N)=O | 7.59 nM | Cmax [2]: 19400 ng/mL; inhibition (Thrombospondin-1 [3]): 85%; half-life [4]: 2.83 h; concentration at 2 h [5]: 2.1 µM; bioavailability [6]: 9%; concentration at 1 h [7]: 11.6 µM; half-life [8]: > 5 h; half-life [9]: 7 h; half-life [10]: 0.2 h |
| CC(=O)N[C@@H](CO)C(=O)N[C@@H](CCCCN)C(=O)N[C@@H](CC(C)C)C(=O)N(C)C (HELM PEPTIDE1{[ac].S.K.L.[CN(C)[*:1]]}$$$$V2.0) | 3.31 nM |  |
| CC(=O)N[C@@H](CO)C(=O)N[C@@H](CCCN)C(=O)NC(C)(C)C(N)=O (HELM PEPTIDE1{[ac].S.[Orn].[Aib].[am]}$$$$V2.0) |  | inhibition (Thrombospondin-1 [3]): 34% |
| CC(=O)NCC(=O)N[C@@H](CCCCN)C(=O)N[C@@H](CC(C)C)C(N)=O (Ac-Gly-Lys-Leu-NH2) | 14.1 nM |  |
| CC(=O)N[C@@H](CC(N)=O)C(=O)N[C@@H](CCCCN)C(=O)N[C@@H](CC(C)C)C(N)=O (Ac-Asn-Lys-Leu-NH2) | 9.55 nM |  |
| CC(=O)N[C@H](CO)C(=O)N[C@@H](CCCCN)C(=O)N[C@@H](CC(C)C)C(N)=O (HELM PEPTIDE1{[ac].[dS].K.L.[am]}$$$$V2.0) | 0.38 nM |  |

Continued, in another order:

| IC50 (Thrombospondin-1 [1]) | Compound | also measured |
| --- | --- | --- |
| 15.1 nM | CC(=O)NCCCC[C@H](NC(=O)[C@H](CO)NC(C)=O)C(=O)N[C@@H](CC(C)C)C(N)=O (Ac-Ser-Lys(Ac)-Leu-NH2) |  |
| 13.5 nM | CCC(=O)N[C@@H](CO)C(=O)N[C@@H](CCCCN)C(=O)N[C@@H](CC(C)C)C(N)=O (HELM PEPTIDE1{[CCC(=O)[*:2]].S.K.L.[am]}$$$$V2.0) |  |
| 5.25 nM | CC(=O)N[C@@H](CO)C(=O)N[C@@H](CCCCN)C(=O)N[C@@H](CC(C)C)C(N)=O (Ac-Ser-Lys-Leu-NH2) | inhibition (Thrombospondin-1 [3]): 85%; half-life [10]: 1.9 h |
| 2.88 nM | CNC(=O)[C@H](CC(C)C)NC(=O)[C@@H](CCCCN)NC(=O)[C@@H](NC(C)=O)[C@@H](C)O |  |
| 1.7 nM | CC(=O)N[C@@H](CO)C(=O)N[C@H](CCCCN)C(=O)N[C@@H](CC(C)C)C(N)=O (HELM PEPTIDE1{[ac].S.[dK].L.[am]}$$$$V2.0) |  |
| 2 nM | CC(=O)N[C@@H](CO)C(=O)N[C@@H](CCCCN)C(=O)N[C@H](CC(C)C)C(N)=O (HELM PEPTIDE1{[ac].S.K.[dL].[am]}$$$$V2.0) |  |
